Source: patent publication US6919377B2, “Cyclohexylamine derivative as subtype selective NMDA receptor antagonists” (Warner Lambert Company LLC, priority 2000, dated 2005)

How the values were obtained:
NR1a/NR2B = NR1a/NR2B (Rattus norvegicus, UniProt P35439+Q00960); assay: Electrophysiological assay at NMDA receptor subunits expressed in Xenopus oocytes (two-electrode voltage clamp); format: cell-based; details: Table 4; cloned rat NMDA receptor subunits in Xenopus oocytes; read-out: NR1a/NR2B Oocyte IC50
Method: The clones were transformed into appropriate host bacteria and plasmid preparations were made with conventional DNA purification techniques. A sample of each clone was linearized by restriction enzyme digestion […] was synthesized with T3 RNA polymerase. The cRNA was diluted to 400 ng/μL and stored in 1 μL aliquots at −80° C. until injection.
The Xenopus Oocyte Expression System. […] Follicle-enclosed oocytes were micro-injected with 1:1 mixtures of NR1A:NR2A, 2B or 2C.; injecting 1 to 10 ng of RNA encoding each receptor subunit. NR1A encoding RNA was injected alone at ˜20 ng. Oocytes were stored in Barth's medium containing (in mM): NaCl, 88; KCl, 1; CaCl2, 0.41; Ca (NO3)2, 0.33; MgSO4, 0.82; NaHCO3, 2.4; HEPES 5, pH 7.4, with 0.11 mg/ml gentamicin sulphate. While oocytes were still surrounded by enveloping ovarian tissues, the Barth's medium was supplemented with 0.1% bovine serum.
Drugs were applied by bath perfusion. Using oocytes expressing different subunit combinations of NMDA receptor, NMDA currents were activated by co-application of glutamate (100 μM) and glycine (1-100 μM). Inhibitory potency of the novel antagonists was assessed on responses elicited by fixed concentrations of glutamate and glycine, by measuring reductions in current induced by progressively increasing concentrations of antagonist.
Concentration-inhibition curves were fit with Equation 1. […] For incomplete curves analysis by fitting was unreliable and IC50 values were calculated by simple regression over linear portions of the curves (Origin: Microcal Software).

Alpha 1 = Alpha 1 (Table 4, no method given); format: binding; details: read-out: Alpha 1 cocn IC50
D2 = D2 (Homo sapiens, UniProt P14416); assay: D2 Raclopride (Table 4, no method given); format: binding
D2, sequence (P14416 whole entry): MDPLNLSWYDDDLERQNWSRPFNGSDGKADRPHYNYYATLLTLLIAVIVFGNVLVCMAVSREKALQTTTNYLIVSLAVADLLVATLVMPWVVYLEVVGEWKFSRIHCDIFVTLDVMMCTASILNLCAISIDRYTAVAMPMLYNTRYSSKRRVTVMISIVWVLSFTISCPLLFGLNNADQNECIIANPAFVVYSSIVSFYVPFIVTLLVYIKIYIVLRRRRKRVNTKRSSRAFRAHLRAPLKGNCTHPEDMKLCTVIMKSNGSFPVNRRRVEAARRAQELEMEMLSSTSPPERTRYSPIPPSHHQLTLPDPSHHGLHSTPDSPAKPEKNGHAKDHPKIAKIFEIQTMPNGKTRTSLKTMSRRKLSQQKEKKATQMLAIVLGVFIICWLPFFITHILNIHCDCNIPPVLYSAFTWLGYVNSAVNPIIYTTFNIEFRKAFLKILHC

NR1a/NR2B, sequence (Q00960 27-1482, other chains not shown): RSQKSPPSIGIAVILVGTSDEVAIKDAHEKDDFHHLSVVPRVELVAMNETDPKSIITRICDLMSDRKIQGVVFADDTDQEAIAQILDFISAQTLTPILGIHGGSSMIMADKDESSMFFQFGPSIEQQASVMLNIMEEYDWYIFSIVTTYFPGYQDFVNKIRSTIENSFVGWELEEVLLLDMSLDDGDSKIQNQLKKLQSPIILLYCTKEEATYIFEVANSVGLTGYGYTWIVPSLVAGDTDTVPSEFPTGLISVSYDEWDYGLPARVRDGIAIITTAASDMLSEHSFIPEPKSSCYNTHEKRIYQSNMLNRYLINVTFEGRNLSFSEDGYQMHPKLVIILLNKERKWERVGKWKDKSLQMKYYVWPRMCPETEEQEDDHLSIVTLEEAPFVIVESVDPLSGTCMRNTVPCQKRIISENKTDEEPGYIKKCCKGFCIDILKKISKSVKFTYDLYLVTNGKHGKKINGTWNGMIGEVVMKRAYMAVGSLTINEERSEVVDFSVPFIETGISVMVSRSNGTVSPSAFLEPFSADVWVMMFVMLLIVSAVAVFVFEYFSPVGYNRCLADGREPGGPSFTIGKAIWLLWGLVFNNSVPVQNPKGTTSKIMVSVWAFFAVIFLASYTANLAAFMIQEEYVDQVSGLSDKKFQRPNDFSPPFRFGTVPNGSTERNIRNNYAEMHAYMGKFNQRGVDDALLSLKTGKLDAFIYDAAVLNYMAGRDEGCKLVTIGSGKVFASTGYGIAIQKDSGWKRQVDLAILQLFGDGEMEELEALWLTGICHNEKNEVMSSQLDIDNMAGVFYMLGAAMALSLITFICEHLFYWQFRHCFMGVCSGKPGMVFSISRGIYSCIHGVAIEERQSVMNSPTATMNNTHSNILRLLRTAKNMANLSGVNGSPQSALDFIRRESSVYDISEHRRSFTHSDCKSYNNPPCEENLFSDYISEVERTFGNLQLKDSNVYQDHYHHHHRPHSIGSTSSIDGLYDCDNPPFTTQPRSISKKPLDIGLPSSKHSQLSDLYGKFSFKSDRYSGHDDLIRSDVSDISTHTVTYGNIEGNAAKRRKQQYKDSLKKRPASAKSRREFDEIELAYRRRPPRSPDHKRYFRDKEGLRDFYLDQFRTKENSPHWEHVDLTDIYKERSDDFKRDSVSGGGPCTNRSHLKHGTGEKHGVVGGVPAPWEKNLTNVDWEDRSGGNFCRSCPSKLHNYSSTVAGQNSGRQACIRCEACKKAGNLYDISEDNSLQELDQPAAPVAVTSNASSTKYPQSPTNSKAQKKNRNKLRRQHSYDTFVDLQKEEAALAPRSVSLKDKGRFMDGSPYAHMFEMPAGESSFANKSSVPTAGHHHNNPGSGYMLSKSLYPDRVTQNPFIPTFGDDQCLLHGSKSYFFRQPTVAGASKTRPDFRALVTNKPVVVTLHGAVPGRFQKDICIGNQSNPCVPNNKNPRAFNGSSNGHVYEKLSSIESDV

| SMILES | IC50 (NR1a/NR2B) | IC50 (Alpha 1) | IC50 (D2) |
| --- | --- | --- | --- |
| Oc1ccc([C@H]2CC[C@@H](NCCc3ccc(F)cc3)CC2)cc1 [Example 5a, cis-4-{4-[2-(4-Fluorophenyl)ethylamino]cyclohexyl}phenol] | 1200 nM | 10000 nM | 2700 nM |
| COc1ccc(CCN[C@H]2CC[C@@H](c3ccc(O)cc3)CC2)cc1 [Example 8a, cis-4-{4-[2-(4-Methoxyphenyl)ethylamino]cyclohexyl}phenol] | 2400 nM | 9200 nM | 5000 nM |
| COc1ccc(CCN[C@H]2CC[C@H](c3ccc(O)cc3)CC2)cc1 [Example 8b, trans-4-{4-[2-(4-Methoxyphenyl)ethylamino]cyclohexyl}phenol] | 240 nM | 5100 nM | 1900 nM |
| COc1ccc(CCCN[C@H]2CC[C@H](c3ccc(O)cc3)CC2)cc1 [Example 28, Trans-4-{4-[3-(4-methoxyphenyl)propylamino]cyclohexyl}phenol] | 70 nM | 2300 nM | 2970 nM |
